How the values were obtained:
[1] = system: ABCA1; assay: ABCA1 gene expression in Huh-7 cells; type: cell-based, human; conditions: 24 h, compared to mock-treated cells
[2] = system: MC65 cells; assay: Toxicity to MC65 cells in the presence of tetracycline; type: cell-based; conditions: median toxic concentration to MC65 cells, presence of TC
[3] = system: MC65 cells; assay: MC65 cell protection assay; type: cell-based; conditions: for protection of MC65 cell death (in words): MC65 cells, absence of TC

SMILES | expression of ABCA1 [1] | TD50 [2] | protection of MC65 cell death (in words) [3] | protection of MC65 cell death ([3]; up to 50 μM)
Cc1cc2c(c(=O)o1)C=C1CC[C@H](C(C)Cn3cnc(N)c4ncnc3-4)C[C@@H]1O2 (stereo partly shown) [Compound 1] | significantly increased | 39.0 ± 1.12 µM | – | –
Cc1cc2c(c(=O)o1)C=C1CC[C@H](C(C)CNCc3ccc(O)c4ccccc34)C[C@@H]1O2 (stereo partly shown) [Compound 4a] | significantly increased | 13.7 ± 0.704 µM | – | –
Cc1cc2c(c(=O)o1)C=C1CC[C@H](C(C)CNCc3ccc(C#N)cc3)C[C@@H]1O2 (stereo partly shown) [Compound 2i] | – | – | abolishes the activity | –
CCCCCCCCCCC(C)(C)C(=O)Nc1c(OC)cc(OC)cc1OC [CI-976, reference compound] | significantly increased | – | – | inactive
Cc1cc2c(c(=O)o1)C=C1CC[C@H](C(C)CNCc3ccc(O)c(F)c3)C[C@@H]1O2 (stereo partly shown) [Compound 3f] | – | >50 µM | – | –
Cc1cc2c(c(=O)o1)C=C1CC[C@H](C(C)CNCc3ccc(O)cc3)C[C@@H]1O2 (mixture of isomers) [Compound 2b, (5aS,7S)-3-Methyl-7-[(1R) and (1S)1-(4-hydroxybenzylamino)propan-2-yl]-1H,7H-5a,6,8,9-tetrahydro-1-oxopyrano[4,3-b][1]benzopyran] | significantly increased | 49.3 ± 0.127 µM | – | –
Cc1cc2c(c(=O)o1)C=C1CC[C@H](C(C)CNC(=O)c3ccccc3O)C[C@@H]1O2 (stereo partly shown) [Compound 6b] | – | – | poor activity | –
CC(=O)Oc1ccccc1C(=O)NCC(C)[C@H]1CCC2=Cc3c(cc(C)oc3=O)O[C@H]2C1 (stereo partly shown) [Compound 6a] | – | – | inactive | –
Cc1cc2c(c(=O)o1)C=C1CC[C@H](C(C)CNCc3ccc(CO)cc3)C[C@@H]1O2 (stereo partly shown) [Compound 2e] | – | >50 µM | – | –

— PMC3486708 (Journal of medicinal chemistry, 2012)
